# In patent US9809542B2, “Spiroheterocyclically substituted tetramic acid derivatives” (BAYER INTELLECTUAL PROPERTY GMBH, priority 2010, dated 2017):
# Assays:
# [1] = test system: larva of the mustard beetle (Phaedon cochleariae); assay: Phaedon test (PHAECO spray treatment); type: in vivo; conditions: application rate 500 g/ha, Chinese cabbage leaf discs, after 7 days
# Procedure: Phaedon Test ([…] Spray Treatment) Solvents: 78.0 parts by weight of acetone • • 1.5 parts by weight of dimethylformamide Emulsifier: 0.5 part by weight of alkylaryl polyglycol ether To produce a suitable preparation of active compound, one part by weight of active compound is mixed with the stated amounts of solvents and emulsifier, and the concentrate is diluted with emulsifier-containing water to the desired concentration. Discs of Chinese cabbage (Brassica pekinensis) are sprayed with an active compound preparation of the desired concentration and, after drying, populated with larva of the mustard beetle (Phaedon cochleariae).
# [2] = test system: caterpillars of the armyworm (Spodoptera frugiperda); assay: Spodoptera frugiperda test (SPODFR spray treatment); type: in vivo; conditions: application rate 500 g/ha, maize leaf discs, after 7 days
# Procedure: Spodoptera frugiperda Test (SPODFR Spray Treatment)
# Solvents: 78.0 parts by weight of acetone
# • 1.5 parts by weight of dimethylformamide Emulsifier: 0.5 part by weight of alkylaryl polyglycol ether
# To produce a suitable preparation of active compound, 1 part by weight of active compound is mixed with the stated amounts of solvents and emulsifier, and the concentrate is diluted with emulsifier-containing water to the desired concentration. Discs of maize leaves (Zea mays) are sprayed with an active compound preparation of the desired concentration and, after drying, populated with caterpillars of the armyworm (Spodoptera frugiperda).
# After 7 days, the effect in % is determined. 100% means that all caterpillars have been killed; 0% means that none of the caterpillars have been killed.
# [3] = test system: Boophilus microplus; assay: Boophilus microplus test (BOOPMI injection); type: in vivo; conditions: application rate 20 μg/animal; injection into the abdomen; after 7 days
# Procedure: Boophilus microplus Test (BOOPMI Injection)
# Solvent: Dimethyl sulphoxide
# To produce a suitable preparation of active compound, 10 mg of active compound are mixed with 0.5 ml of solvent and the concentrate is diluted with solvent to the desired concentration. The solution of active compound is injected into the abdomen (Boophilus microplus) and the animals are transferred into dishes and stored in a climatized room. The activity is monitored for deposition of fertile eggs.
# After 7 days, the effect in % is determined. 100% means that none of the ticks has laid any fertile eggs.
# [4] = Penetration of active compounds through enzymatically isolated cuticles of apple tree leaves; type: in vitro ADME, apple trees of the cultivar Golden Delicious; conditions: 300 ppm in DMF/emulsifier W 7:1 (w/w), 20° C., 60% rh; for Penetration after 24 h, EC + RME (1 g/l) + AS (1 g/l): + RME 1 g/l + ammonium sulphate 1 g/l; for Penetration after 24 h, EC + RME (1 g/l) + DAHP (1 g/l): + RME 1 g/l + diammonium hydrogenphosphate 1 g/l; for Penetration after 24 h, EC + AS (1 g/l): + ammonium sulphate 1 g/l; for Penetration after 24 h, EC + DAHP (1 g/l): + diammonium hydrogenphosphate 1 g/l; for Penetration after 24 h, EC + RME (1 g/l): + rapeseed oil methyl ester 1 g/l; for Penetration after 24 h, EC: EC alone
# Procedure: Example 8: Increase of Penetration into the Plant by Ammonium or Phosphonium Salts and Synergistic Increase of Penetration into the Plant by Ammonium Salts in Combination with Penetrants
# In this test, the penetration of active compounds through enzymatically isolated cuticles of apple tree leaves is measured.
# Use is made of leaves which, fully developed, are cut from apple trees of the cultivar Golden Delicious. The cuticles are isolated by • initially filling leaf discs punched out and stained with dye on the underside by vacuum infiltration with a pectinase solution (0.2 to 2% strength) buffered to pH between 3 and 4, • then adding sodium azide and • allowing the leaf discs treated in this manner to stand until the original leaf structure has dissolved and the non-cellular cuticles have detached.
# Only the cuticles, free from hairs and stoma, of the upper sides of the leaves are then used further. They are washed repeatedly alternately with water and a buffer solution of pH 7. The clean cuticles obtained are then mounted on Teflon plates and smoothed and dried with a gentle stream of air.
# In the next step, the cuticle membranes obtained in this manner are placed into stainless steel diffusion cells (=transport chambers) for membrane transport studies. To this end, the cuticles are placed with a pincette into the centre of the edges, coated with silicone fat, of the diffusion cells and closed with a ring, which is also treated with fat. The arrangement is chosen such that the morphological outside of the cuticles is facing outwards, i.e. is exposed to air, whereas the original inside is facing the interior of the diffusion cell.
# The diffusion cells are filled with a 30% strength ethylene glycol/water solution. To determine the penetration, in each case 10 μl of the spray liquor of the composition below are applied to the outside of the cuticles. The spray liquor is prepared using local tap water of medium hardness.
# After the application of the spray liquors, the water is allowed to evaporate and the chambers are inverted and placed into thermostated tubs in which the temperature and atmospheric humidity over the cuticles can be adjusted using a gentle stream of air onto the cuticles with the spray coating (20° C., 60% rh). At regular intervals, an autosampler takes aliquots and the active compound content is determined by HPLC.
# The stated numbers are average values of 8 to 10 measurements. It is clearly evident that even ammonium sulphate on its own improves the penetration markedly, and that, together with RME, a superadditive (synergistic) effect is present.
# [5] = test system: green peach aphid (Myzus persicae); assay: Myzus persicae test, activity boost by ammonium salts in combination with penetrants; type: in vivo; conditions: bell pepper plants; for Kill rate after 6 days: no additive
# Procedure: Example 9: Activity Boost by Ammonium Salts in Combination with Penetrants
# (§1) Solvent: 7 parts by weight of dimethylformamide
# (§2) Emulsifier: 2 parts by weight of alkylaryl polyglycol ether
# (§3) To produce a suitable preparation of active compound, 1 part by weight of active compound is mixed with the stated amounts of solvent and emulsifier, and the concentrate is diluted with water to the desired concentration. For application with ammonium salts and penetrants (rapeseed oil methyl ester 500 EW) these are in each case added in a concentration of 1000 ppm of a.i. to the spray liquor.
# Bell pepper plants (Capsicum annuum) heavily infested by the green peach aphid (Myzus persicae) are sprayed to runoff point with the preparation of active compound at the desired concentration. After the desired period of time, the kill in % is determined. 100% means that all animals have been killed; 0% means that none of the animals have been killed.
# [6] = test system: cotton aphid (Aphis gossypii); assay: Aphis gossypii test; type: in vivo; conditions: cotton plants; for Kill rate after 6 days: no additive
# Procedure: as §1, §2
# as §3, with “diluted with emulsifier-containing water to” for “diluted with water to”, “oil methyl esters 500 EW)” for “oil methyl ester 500 EW)”
# Cotton plants (Gossypium hirsutum) which are heavily infested by the cotton aphid (Aphis gossypii) are sprayed to runoff point with the preparation of active compound at the desired concentration.
# After the desired period of time, the kill in % is determined. 100% means that all aphids have been killed; 0% means that none of the aphids have been killed.
SMILES,"efficacy (effect in %, beetle larva killed) [1] [%]","efficacy (effect in %, caterpillars killed) [2] [%]","efficacy (effect in %, 100% = none of the ticks has laid any fertile eggs) [3] [%]","Penetration after 24 h, EC + RME (1 g/l) + AS (1 g/l) [4] [%]","Penetration after 24 h, EC + RME (1 g/l) + DAHP (1 g/l) [4] [%]","Penetration after 24 h, EC + AS (1 g/l) [4] [%]","Penetration after 24 h, EC + DAHP (1 g/l) [4] [%]","Penetration after 24 h, EC + RME (1 g/l) [4] [%]","Penetration after 24 h, EC [4] [%]","Kill rate after 6 days, +AS (1000 ppm) ([5]; 4 ppm) [%]","Kill rate after 6 days, +RME (1000 ppm) ([5]; 4 ppm) [%]","Kill rate after 6 days, +RME + AS (1000 ppm each) ([5]; 4 ppm) [%]",Kill rate after 6 days ([5]; 4 ppm) [%],"Kill rate after 6 days, +AS (1000 ppm) ([6]; 20 ppm) [%]","Kill rate after 6 days, +RME (1000 ppm) ([6]; 20 ppm) [%]","Kill rate after 6 days, +RME + AS (1000 ppm each) ([6]; 20 ppm) [%]",Kill rate after 6 days ([6]; 20 ppm) [%],other results
CON1CCC2(CC1)NC(=O)C(c1c(C)ccc(-c3ccc(F)cc3)c1C)=C2O [I-a-1],83,83,95,19,15,3.8,2.3,0.8,<0.2,30,55,100,0,40,55,100,0,"Kill rate after 6 days, +AS (1000 ppm) ([5]; 20 ppm): 90%; Kill rate after 6 days, +RME (1000 ppm) ([5]; 20 ppm): 95%; Kill rate after 6 days, +RME + AS (1000 ppm each) ([5]; 20 ppm): 100%; Kill rate after 6 days ([5]; 20 ppm): 60%"
CCON1CCC2(CC1)NC(=O)C(c1c(C)ccc(-c3ccc(F)cc3)c1C)=C2O [I-a-2],100,100,90,17,21,3.8,3.9,1.7,1.4,20,95,95,0,25,20,90,0,"Kill rate after 6 days, +AS (1000 ppm) ([5]; 0.8 ppm): 0%; Kill rate after 6 days, +RME (1000 ppm) ([5]; 0.8 ppm): 0%; Kill rate after 6 days, +RME + AS (1000 ppm each) ([5]; 0.8 ppm): 40%; Kill rate after 6 days ([5]; 0.8 ppm): 0%; Kill rate after 6 days, +AS (1000 ppm) ([6]; 4 ppm): 0%; Kill rate after 6 days, +RME (1000 ppm) ([6]; 4 ppm): 0%; Kill rate after 6 days, +RME + AS (1000 ppm each) ([6]; 4 ppm): 45%; Kill rate after 6 days ([6]; 4 ppm): 0%"
